In publication PMC4791643, “Reconstruction of diaminopimelic acid biosynthesis allows characterisation of Mycobacterium tuberculosis N-succinyl-L,L-diaminopimelic acid desuccinylase” (Scientific Reports, 2016) one finds inhibition data, which are given here for 3 molecules.

As a reminder, the inhibition is how much of the control response was suppressed.

This assay concerns the target T1, MtDapE (Mycobacterium tuberculosis, UniProt P9WHS9).
T1 construct: gene dapE
The experiment in a line: inhibition in coupled assay, preincubated with inhibitor, NADPH at […] nm. It counts as biochemical. The settings on record: for inhibition at 1000 µM: read-out: % inhibition at 1 mM.

T1 sequence (P9WHS9 whole entry, looked up): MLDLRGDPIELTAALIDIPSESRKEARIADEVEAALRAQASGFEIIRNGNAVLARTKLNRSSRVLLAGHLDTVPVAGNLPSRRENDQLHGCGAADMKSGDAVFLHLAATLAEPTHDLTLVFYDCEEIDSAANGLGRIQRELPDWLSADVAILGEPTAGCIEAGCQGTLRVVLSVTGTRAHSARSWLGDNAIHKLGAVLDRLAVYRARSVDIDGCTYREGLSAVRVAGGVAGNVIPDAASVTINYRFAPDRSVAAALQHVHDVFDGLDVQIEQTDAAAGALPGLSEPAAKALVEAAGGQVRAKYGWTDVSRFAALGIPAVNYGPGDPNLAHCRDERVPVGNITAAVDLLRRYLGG

On to `OB(O)c1cccs1` [2-thiopheneboronic acid], for which, for the setting “read-out: % inhibition at 10 mM”, the inhibition at 10000 µM amounted to 22.3%.

Regarding `C[C@H](CS)C(=O)N1CCC[C@H]1C(=O)O` [L-captopril], the inhibition at 1000 µM was found to be 23.3%.

For the molecule `CC(C)(S)[C@H](N)C(=O)O` [L-penicillamine], the inhibition at 1000 µM stood at 79.4%.
